Data set [1] has as its system human prostate cancer cells (PC3). Kind of data set: Cytotoxicity by SRB assay, PC3 cells. It counts as cell-based. The conditions noted are these: androgen-independent metastatic human prostate cancer cells (PC3), 0.01 μM to 100 μM, 72 h. The method, then: (§1) The human prostate cancer cells (PC3) and human osteosarcoma cells (MG-63) were obtained from Nawah Scientific Inc. (Mokatam, Cairo, Egypt) and cultured in DMEM (Dulbecco's modified eagle's medium), Gibco, USA, supplemented with fetal bovine serum (FBS) at a concentration of 10% and 100 U/mL of penicillin and streptomycin (PS). The Cells were incubated at 37° C. in a humidified environment that contained 5% CO2. Cells were seeded in 96-well plates as aliquots of 100 μL cell suspension and incubated in a complete media for 24 h. afterward, cells were treated with 2-(1-(3-(Dimethylamino)propyl)-4,5-diphenyl-1H-imidazol-2-yl)pyridin-3-ol at diverse concentrations ranging from 0.01 μM to 100 μM for 72 h. […] Then, 150 μL of Tris pH 10.5 (10 mM) was added, and the absorbance was measured at 540 nm using a BMG LABTECH®-FLUOstar Omega microplate reader (Ortenberg, Germany). Half maximal inhibitory concentrations (IC50) values were calculated for each experiment using GraphPad Prism 6 software. […] The inhibition was calculated using the following equation: Inhibition %=100−Average Viability The anticancer activity of 2-(1-(3-(Dimethylamino)propyl)-4,5-diphenyl-1H-imidazol-2-yl)pyridin-3-ol was assessed against highly aggressive androgen-independent metastatic human prostate cancer cells (PC3) and osteosarcoma (MG-63) cells.
For orientation: In SRB staining, fixed cells bind dye roughly in proportion to their protein.

Data set [2] relates to human osteosarcoma cells (MG-63). Nature of the data set: Cytotoxicity by SRB assay, MG-63 cells. It counts as cell-based. The following applies: osteosarcoma (MG-63) cells, 0.01 μM to 100 μM, 72 h. As to the method:
as §1

We go through one compound from US11976055B1, “2-(1-(3-(dimethylamino)propyl)-4,5-diphenyl-1H-imidazol-2-yl)pyridin-3-ol as an antitumor and antimicrobial compound” (KING FAISAL UNIVERSITY, priority 2023, dated 2024).

The melting point is the temperature, or range, at which the solid turns liquid.

`CN(C)CCCn1c(-c2ncccc2O)nc(-c2ccccc2)c1-c1ccccc1` [2-(1-(3-(Dimethylamino)propyl)-4,5-diphenyl-1H-imidazol-2-yl)pyridin-3-ol] had a melting point of 133 to 135 °C. Besides, the “antiproliferative activity against PC3 cells” value in data set [1] is given as “excellent antiproliferative activities”. Also, in data set [2], the “antiproliferative activity against MG-63 cells” value is listed as “excellent antiproliferative activities”.
